According to PubChem BioAssay (NCI):
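Cultured in 96-well plates, cells were exposed to test compound for 48 hours across five concentrations. The concentration for 50% growth inhibition is given as GI50. TGI marks complete inhibition of growth.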

Tests used:
Test in all cases: growth of human tumour cells (NCI), 48 h
ACHN renal = tested on: ACHN renal
HOP-92 NSCLC = tested on: HOP-92 NSCLC
HT29 colon = tested on: HT29 colon
KM12 colon = tested on: KM12 colon
MDA-MB-231 breast = tested on: MDA-MB-231 breast
NCI-H23 lung = tested on: NCI-H23 lung
OVCAR-5 ovarian = tested on: OVCAR-5 ovarian
RPMI-8226 leukemia = tested on: RPMI-8226 leukemia
SK-MEL-2 melanoma = tested on: SK-MEL-2 melanoma
SR leukemia = tested on: SR leukemia

Compound | GI50 (ACHN renal) | TGI (ACHN renal) | GI50 (HOP-92 NSCLC) | TGI (HOP-92 NSCLC) | GI50 (HT29 colon) | TGI (HT29 colon) | GI50 (KM12 colon) | TGI (KM12 colon) | GI50 (MDA-MB-231 breast) | TGI (MDA-MB-231 breast) | GI50 (NCI-H23 lung) | TGI (NCI-H23 lung) | GI50 (OVCAR-5 ovarian) | TGI (OVCAR-5 ovarian) | GI50 (RPMI-8226 leukemia) | TGI (RPMI-8226 leukemia) | GI50 (SK-MEL-2 melanoma) | TGI (SK-MEL-2 melanoma) | TGI (SR leukemia)
C=C(CN1CCN(c2cccc(F)c2)CC1)c1ccc(C(=O)Nc2ccccc2N)cc1 | 4.59 µM | 90.7 µM | 0.6 µM | 6.97 µM | 1.09 µM | 4.06 µM | 1.38 µM | 50.1 µM | 1.01 µM | 4.27 µM | 1.77 µM | 17.3 µM | 2.61 µM | > 100 µM | 0.429 µM | 2.89 µM | 4.89 µM | > 100 µM | 
CC(C)CC(=O)NS(=O)(=O)c1ccccc1 |  | > 100 µM |  | > 100 µM |  | > 100 µM |  | > 100 µM |  |  |  | > 100 µM |  | > 100 µM |  | > 100 µM |  | > 100 µM | > 100 µM
c1ccc(C2N3CCCCC3[C@@H]3c4[nH]c5ccccc5c4CCN23)cc1 (stereo partly specified) |  | > 100 µM |  | > 100 µM |  | 33.5 µM |  |  |  |  |  | > 100 µM |  | > 100 µM |  | > 100 µM |  | > 100 µM | 
CN(C)CCC1(C2=CCCC2)CC/C(=C\c2ccccc2)C1=O (stereo unspecified) |  | 28.6 µM |  | 45.6 µM |  | 34.4 µM |  | 28.8 µM |  |  |  | 46.9 µM |  | 35.7 µM |  | 35.1 µM |  | 31 µM | > 100 µM
CC1(C)OC(=O)C(=C2CC(c3ccccc3)c3ccccc32)C(=O)O1 (stereo unspecified) |  | > 100 µM |  | > 100 µM |  | > 100 µM |  |  |  |  |  | > 100 µM |  | > 100 µM |  | > 100 µM |  |  | > 100 µM
C[n+]1ccc(-c2c3nc(c(-c4ccc5c(ccc[n+]5C)c4)c4ccc([nH]4)c(-c4cc[n+](C)cc4)c4nc(c(-c5ccc6c(ccc[n+]6C)c5)c5ccc2[nH]5)C=C4)C=C3)cc1 | 27.9 µM | > 50 µM | 25.1 µM | > 50 µM | > 50 µM | > 50 µM | 23.1 µM | > 50 µM | 16.3 µM | > 50 µM | > 50 µM | > 50 µM | > 50 µM | > 50 µM | > 50 µM | > 50 µM | 22.4 µM | > 50 µM | 
O=c1/c(=C/c2ccc3c(c2)OCO3)sc2nnc(-c3ccco3)n12 |  | > 100 µM |  |  |  |  |  | > 100 µM |  |  |  | > 100 µM |  | > 100 µM |  | > 100 µM |  | > 100 µM | 
Cc1cccc(NC(=O)CC#N)c1Cl |  | > 100 µM |  | > 100 µM |  | > 100 µM |  | > 100 µM |  |  |  | > 100 µM |  |  |  | > 100 µM |  | > 100 µM | > 100 µM
COc1ccc(C#CCC(OC2OC(CO)C(O)C(O)C2O)C(O)c2ccc(OC)c(OC)c2)cc1OC (stereo unspecified) |  | > 100 µM |  |  |  | > 100 µM |  | > 100 µM |  |  |  | > 100 µM |  | > 100 µM |  | > 100 µM |  | > 100 µM | > 100 µM
COc1ccc(CC2C3=C(CCCC3)CCN2C)cc1 (stereo unspecified) |  | > 100 µM |  |  |  | > 100 µM |  | > 100 µM |  | > 100 µM |  | > 100 µM |  | > 100 µM |  | > 100 µM |  | > 100 µM | 
CC([O-])C(=O)[O-].NCC1CCC1CN.[Pt+4] (stereo unspecified) | 6.19 µM | > 10 µM | > 10 µM | > 10 µM | > 10 µM | > 10 µM | > 10 µM | > 10 µM | > 10 µM | > 10 µM | > 10 µM | > 10 µM | > 10 µM | > 10 µM | > 10 µM | > 10 µM | > 10 µM | > 10 µM | 
CC(C)Oc1ccc(C(=O)N[C@H](CNC(=O)CN(C)C)Cc2ccc(-c3cn4cccc([C@H](C)O)c4n3)cc2)cc1Cl | 6.6 µM | 21.8 µM | 11.2 µM | 24.3 µM | 0.035 µM | 13 µM | 0.0381 µM | 18 µM | 0.0445 µM | 8.2 µM | 0.0566 µM | 21.5 µM | 0.0771 µM | 22.2 µM | 0.0399 µM | 19.8 µM | 0.0434 µM | 11.1 µM | 
CCC/C(=N\NC(=O)c1cc2ccccc2cc1O)C(CC)C(=O)CCC(=O)N(Cc1ccccc1)Cc1ccccc1 (stereo unspecified) |  | > 100 µM |  | > 100 µM |  | > 100 µM |  | > 100 µM |  |  |  | > 100 µM |  | > 100 µM |  | > 100 µM |  | 77.8 µM | > 100 µM
O=C(c1ccc2c3c(ccc(C(=O)C(F)(F)F)c13)CC2)C(F)(F)F |  | > 100 µM |  | 76.2 µM |  | > 100 µM |  | > 100 µM |  |  |  | > 100 µM |  | > 100 µM |  |  |  | > 100 µM | > 100 µM
Cc1cc2c(cc1C)[n+](=O)c(C(=O)/C=C/c1ccccc1Cl)c(C)n2[O-] |  | 58.1 µM |  |  |  | > 100 µM |  | 96.2 µM |  |  |  | 46.7 µM |  | > 100 µM |  | > 100 µM |  | 68.7 µM | 
CC(=O)c1ccc(NCN2C(=O)c3ccccc3C2=O)cc1 |  | > 100 µM |  | > 100 µM |  | > 100 µM |  | > 100 µM |  | > 100 µM |  | > 100 µM |  | > 100 µM |  | > 100 µM |  | > 100 µM | 
Cc1ccc(C2=C(c3ccccc3)C(O)(c3ccc(C)cc3)C(c3ccccc3)=C2c2ccc(C)cc2)cc1 |  | > 100 µM |  | > 100 µM |  |  |  | > 100 µM |  |  |  | 40.2 µM |  | > 100 µM |  | > 100 µM |  | > 100 µM | 
COc1cc(-c2cc(CCC(=O)Nc3ccccc3[N+](=O)[O-])n(-c3ccc([N+](=O)[O-])cc3[N+](=O)[O-])n2)ccc1O | > 10 µM | > 100 µM | > 100 µM | > 100 µM |  | > 10 µM |  | > 10 µM |  |  | > 100 µM | > 100 µM | > 100 µM | > 100 µM | > 100 µM | > 100 µM | > 100 µM | > 100 µM | > 10 µM
CCC(/C(=N\Nc1c(Cl)cc(Cl)cc1Cl)c1ccccc1)n1ccnc1C (stereo unspecified) |  | 19.5 µM |  | 19.7 µM |  | 21.4 µM |  | 26.8 µM |  |  |  | 25.3 µM |  | 21.2 µM |  | 41 µM |  | 28.1 µM | 
CC1=C(C(=O)Nc2ccccc2C)C(c2ccc(C3C(C(=O)Nc4ccccc4C)=CNC=C3C(=O)Nc3ccccc3C)cc2)C(C(=O)Nc2ccccc2C)=C(C)N1 |  | 30.6 µM |  | 46.4 µM |  | 29.3 µM |  | 29.2 µM |  |  |  | 36.5 µM |  | 44.4 µM |  | > 73 µM |  | 31.6 µM | 16.7 µM
